The values that follow come from US9078871B2, “Estrogen receptor modulators and uses thereof” (SERAGON PHARMACEUTICALS, INC., priority 2010, dated 2015).

Structures are written as SMILES.

For one assay, the target named is T1, ER-α (Homo sapiens, UniProt P03372).
T1 construct: endogenous in cells; host or cells: MCF-7
T1 sequence (P03372 1-595): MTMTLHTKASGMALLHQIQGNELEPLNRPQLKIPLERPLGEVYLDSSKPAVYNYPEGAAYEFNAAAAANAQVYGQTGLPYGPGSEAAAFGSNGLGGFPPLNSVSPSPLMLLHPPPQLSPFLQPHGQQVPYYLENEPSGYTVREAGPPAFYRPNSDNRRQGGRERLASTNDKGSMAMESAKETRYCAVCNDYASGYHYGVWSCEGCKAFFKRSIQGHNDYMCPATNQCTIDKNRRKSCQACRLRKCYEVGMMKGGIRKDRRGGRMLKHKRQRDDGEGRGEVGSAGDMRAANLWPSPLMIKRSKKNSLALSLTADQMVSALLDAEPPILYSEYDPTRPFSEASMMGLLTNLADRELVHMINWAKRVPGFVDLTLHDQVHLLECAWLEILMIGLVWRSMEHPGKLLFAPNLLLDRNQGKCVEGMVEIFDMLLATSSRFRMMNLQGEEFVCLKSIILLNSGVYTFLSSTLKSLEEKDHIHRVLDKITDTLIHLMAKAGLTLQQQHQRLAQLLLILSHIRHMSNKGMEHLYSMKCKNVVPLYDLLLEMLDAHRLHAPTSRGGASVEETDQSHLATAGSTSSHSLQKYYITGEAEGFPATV
Briefly: ER-α in Cell Western Assay (SP1). Format: cell-based. The note with it: MCF-7 cells, SP1 rabbit monoclonal Ab, 4 or 24 hr post compound addition, read-out: ER In-Cell Western Assay (SP1); for Emax: MCF7, Max Response; for DC50: IC50. On the procedure: MCF-7 cells were adjusted to a concentration of 200,000 cells per mL in RPMI containing 10% charcoal-stripped FBS and 20 mM HEPES. 16 microliters of the cell suspension (3200 cells) was added to each well of a poly-D-lysine 384 well plate, and the cells were incubated overnight to allow the cells to adhere. The following day an eleven point, serial semilog dilution of each compound was added to the cells in 16 μL at a final concentration ranging from 0.3-0.000003 μM. At 4 or 24 hr post compound addition, the cells were fixed (10% formalin in PBS) for 20 minutes. Cells were permeabalized in PBS 0.1% Triton and blocked with LICOR blocking buffer (50 μl/well, 90′). The wells were then incubated overnight at 4° C. with SP1 rabbit monoclonal Ab (Thermo Scientific) diluted 1:1000 in LICOR blocking buffer/0.1% Tween-20. Wells which were treated with blocking buffer with Tween but no antibody were used as a background control. Wells were washed with 0.1% Tween-20/PBS and then incubated in goat anti-rabbit IRDye™ 800CW (LICOR Inc.; 1:1000) and DRAQ5 DNA dye (1:2000 for 2 mM stock) diluted in LICOR blocking buffer containing 0.1% Tween-20 and 0.01% SDS for 60 minutes. Cells were washed (50 μl/well, 5′ each) in 0.1% Tween-20/PBS. Plates were scanned on a LICOR Odyssey infrared imaging system. Integrated intensities in the 800 nm channel and 700 nm channel were measured to determine levels of ER and DNA respectively. Percent ER levels were determined as follows: (Integrated intensity 800 nm sample/integrated intensity 700 nm sample)/(Integrated intensity 800 nm untreated cells/integrated intensity 700 nm untreated cells)×100=% ER levels.

In another assay the test system is MCF-7 cells. In words: Breast Cancer Cell Viability Assay (MCF7 Viability Assay). It counts as cell-based. Conditions: 5 days' compound exposure, CellTiter-Glo; for IC50: Homo sapiens, MCF7, 120 h. On the procedure:
MCF-7 cells were adjusted to a concentration of 20,000 cells per mL in RPMI containing 10% FBS and 20 mM HEPES. 16 microliters of the cell suspension (320 cells) was added to each well of a 384 well plate, and the cells were incubated overnight to allow the cells to adhere. The following day an eleven point, serial semilog dilution of each compound was added to the cells in 16 μL at a final concentration ranging from 0.3-0.000003 μM. After 5 days' compound exposure, 16 μL of CellTiter-GLo (Promega, Madison Wis.) was added to the cells the relative luminescence units (RLUs) of each well was determined. CellTiter-Glo added to 32 μL of medium without cells was used to obtain a background value. The Percent viability of each sample was determined as follows: (RLU sample-RLU background/RLU untreated cells-RLU background)×100=% viability.

As a reminder, the IC50 is the concentration that gives 50% inhibition. The low end stands for greater potency in that assay, the high end for weaker potency in that assay. `CC1=C(c2ccc(O)c(C)c2)C(c2ccc(OC[C@H](C)N3CC[C@@H](C)C3)cc2)Oc2ccc(O)cc21` (stereo partly drawn) [Example 42, 3-(4-Hydroxy-3-methylphenyl)-4-methyl-2-(4-((S)-2-((R)-3-methylpyrrolidin-1-yl)propoxy)phenyl)-2H-chromen-6-ol]: on ER-α, the Emax was at least 85% and the DC50 was at most 1 nM. For the same compound, in the assay with MCF-7 cells, the “MCF7 Viability Assay Max Response” value was “++ (++ = a single % value ≧50%)” and the IC50 is at most 1 nM.

Consider `CC1=C(c2cccc(O)c2)C(c2ccc(OC[C@H](C)N3CC[C@@H](C)C3)cc2)Oc2ccc(O)c(F)c21` (stereo partly drawn) [Example 61, 5-Fluoro-3-(3-hydroxyphenyl)-4-methyl-2-(4-((S)-2-((R)-3-methylpyrrolidin-1-yl)propoxy)phenyl)-2H-chromen-6-ol], for which, at ER-α, the Emax is at least 85% and the DC50 is at most 1 nM. Besides, in the assay with MCF-7 cells, the “MCF7 Viability Assay Max Response” value is “++ (++ = a single % value ≧50%)” and the IC50 was at most 1 nM.

`CC1=C(c2ccc(F)cc2)[C@@H](c2ccc(OC[C@H](C)N3CC[C@@H](C)C3)cc2)Oc2ccc(O)cc21` (single isomer, unassigned) [Example 30b]: on ER-α, the Emax lay within 60 to 85% and the DC50 was over 1 nM. In addition, in the assay with MCF-7 cells, the “MCF7 Viability Assay Max Response” value is reported as “++ (++ = a single % value ≧50%)” and the IC50 is over 1 nM.

As to `CC1=C(c2ccc(F)cc2)C(c2ccc(OC[C@H](C)N3CCOCC3)cc2)Oc2ccc(O)cc21` (stereo partly drawn) [Example 70, 3-(4-Fluorophenyl)-4-methyl-2-(4-((S)-2-morpholinopropoxy)phenyl)-2H-chromen-6-ol], on ER-α, the Emax lay within 60 to 85% and the DC50 is at most 1 nM. In the assay with MCF-7 cells, the “MCF7 Viability Assay Max Response” value is on record as “++ (++ = a single % value ≧50%)” and the IC50 is over 1 nM.

Regarding `CC1=C(c2cccc(O)c2)C(c2ccc(OC[C@H](C)n3cnc(C)c3)cc2)Oc2ccc(O)cc21` (stereo partly drawn) [Example 51, 3-(3-Hydroxyphenyl)-4-methyl-2-(4-((S)-2-(4-methyl-1H-imidazol-1-yl)propoxy)phenyl)-2H-chromen-6-ol], at ER-α, the Emax fell in the range of 60 to 85% and the DC50 is at most 1 nM. Also, in the assay on MCF-7 cells, the “MCF7 Viability Assay Max Response” value is “++ (++ = a single % value ≧50%)” and the IC50 was at most 1 nM.

With `CC1=C(c2ccc(F)cc2)[C@H](c2ccc(OC[C@H](C)N3CC[C@@H](C)C3)cc2)Oc2ccc(O)cc21` (single isomer, unassigned) [Example 30a], on ER-α, the Emax lay within 60 to 85% and the DC50 is at most 1 nM. For the same compound, in the assay on MCF-7 cells, the “MCF7 Viability Assay Max Response” value is “++ (++ = a single % value ≧50%)” and the IC50 is at most 1 nM.

Consider `CC1=C(c2cccc(O)c2)C(c2ccc(OC[C@H](C)N3C4CCC3CC4)cc2)Oc2ccc(O)cc21` (stereo partly drawn) [Example 67, 2-(4-((S)-2-(7-Azabicyclo[2.2.1]heptan-7-yl)propoxy)phenyl)-3-(3-hydroxyphenyl)-4-methyl-2H-chromen-6-ol], for which, on ER-α, the Emax was under 60% and the DC50 is at most 1 nM. In the assay with MCF-7 cells, the “MCF7 Viability Assay Max Response” value is “++ (++ = a single % value ≧50%)” and the IC50 was at most 1 nM.

For the compound `CC1=C(c2ccc(F)cc2F)C(c2ccc(OC[C@H](C)N3CC[C@@H](C)C3)cc2)Oc2ccc(O)cc21` (stereo partly drawn) [Example 52, 3-(2,4-Difluorophenyl)-4-methyl-2-(4-((S)-2-((R)-3-methylpyrrolidin-1-yl)propoxy)phenyl)-2H-chromen-6-ol], at ER-α, the Emax lay within 60 to 85% and the DC50 is at most 1 nM. In the assay on MCF-7 cells, the “MCF7 Viability Assay Max Response” value is reported as “++ (++ = a single % value ≧50%)” and the IC50 is at most 1 nM.

`CC1=C(c2cccc(O)c2)C(c2ccc(OC[C@H](C)N3CC[C@@H](F)C3)cc2)Oc2ccc(O)cc21` (stereo partly drawn) [Example 64, 2-(4-((S)-2-((R)-3-Fluoropyrrolidin-1-yl)propoxy)phenyl)-3-(3-hydroxyphenyl)-4-methyl-2H-chromen-6-ol]: at ER-α, the Emax was at least 85% and the DC50 is at most 1 nM. Also, in the assay with MCF-7 cells, the “MCF7 Viability Assay Max Response” value is “++ (++ = a single % value ≧50%)” and the IC50 is at most 1 nM.
